Our source for the IC50 values is patent US10899732B2, “Substituted benzamides useful as sodium channel blockers” (GENENTECH, INC., priority 2015, dated 2021).

Counter-ions that a name gives are not always drawn.

For one data set, the target named is T1, NaV1.7 (Homo sapiens, UniProt Q15858).
T1 construct: expression vector containing the full-length cDNA coding for the desired human sodium channel α-subunit; expressed in transfected cells; host or cells: HEK-293
Briefly: Patch voltage clamp electrophysiology assay (EP), NaV1.7 in HEK-293 cells. The format is cell-based. The conditions noted are these: HEK-293, β1 coexpressed, held at -60 mV (inactivated state). The source says:
(§1) Electrophysiological Assay (EP) (In Vitro Assay)
(§2) Patch voltage clamp electrophysiology allows for the direct measurement and quantification of block of voltage-gated sodium channels (NaV's), and allows the determination of the time- and voltage-dependence of block which has been interpreted as differential binding to the resting, open, and inactivated states of the sodium channel (Hille, B., Journal of General Physiology (1977), 69: 497-515).
(§3) The following patch voltage clamp electrophysiology studies were performed on representative compounds of the invention using human embryonic kidney cells (HEK), permanently transfected with an expression vector containing the full-length cDNA coding for the desired human sodium channel α-subunit, grown in culture media containing 10% FBS, 1% PSG, and 0.5 mg/mL G418 at 37° C. with 5% CO2. […] NaV1.7 and NaV1.5 cDNAs (NM_002977 and AC137587; SCN5A, respectively) were stably expressed in HEK-293 cells. The β1 subunit was coexpressed in both the NaV1.7 and NaV1.5 cell lines.
(§4) Sodium currents were measured using the patch clamp technique in the whole-cell configuration using either a PatchXpress automated voltage clamp or manually using an Axopatch 200B (Axon Instruments) or Model 2400 (A-M systems) amplifier. The manual voltage clamp protocol was as follows: Borosilicate glass micropipettes were fire-polished to a tip diameter yielding a resistance of 2-4 Mohms in the working solutions. The pipette was filled with a solution comprised of: 5 mM NaCl, 10 mM CsCl, 120 mM CsF, 0.1 mM CaCl2, 2 mM MgCl2, 10 mM HEPES, 10 mM EGTA; and adjusted to pH 7.2 with CsOH. The external solution had the following composition: 140 mM NaCl, 5 mM KCl, 2 mM CaCl2, 1 mM MgCl2, 10 mM HEPES; and adjusted to pH 7.4 with NaOH. In some studies, the external sodium was reduced by equimolar replacement with choline. Osmolarity in the CsF internal and NaCl external solutions was adjusted to 300 mOsm/kg and 310 mOsm/kg with glucose, respectively. All recordings were performed at ambient temperature in a bath chamber with a volume of 150 μL. Control sodium currents were measured in 0.5% DMSO. Controls and representative compounds of the invention were applied to the recording chamber through a 4-pinch or 8-pinch valve bath perfusion system manufactured by ALA Scientific Instruments.
(§5) Currents were recorded at 40 kHz sampling frequency, filtered at […], and stored using a Digidata-1322A analogue/digital interface with the pClamp software (Axon Instruments). Series resistance compensation was applied (60-80%). […] All statistics in this study are given as mean±SD.
(§6) The membrane potential was maintained at a voltage where inactivation of the channel is complete (which was −60 mV for both NaV1.7 and NaV1.5). The voltage is then stepped back to a very negative (Vhold=[…]) voltage for 20 ms and then a test pulse is applied to quantify the compound block. The 20 ms brief repolarization was long enough for compound-free channels to completely recover from fast inactivation, but the compound-bound channels recovered more slowly such that negligible recovery could occur during this interval. The percent decrease in sodium current following wash-on of compound was taken as the percent block of sodium channels.

Another data set deals with T2, hNav1.7 (Homo sapiens, UniProt Q15858).
T2 construct: expressed in transfected cells
T2 sequence (Q15858 1-1977 isoform Q15858-3): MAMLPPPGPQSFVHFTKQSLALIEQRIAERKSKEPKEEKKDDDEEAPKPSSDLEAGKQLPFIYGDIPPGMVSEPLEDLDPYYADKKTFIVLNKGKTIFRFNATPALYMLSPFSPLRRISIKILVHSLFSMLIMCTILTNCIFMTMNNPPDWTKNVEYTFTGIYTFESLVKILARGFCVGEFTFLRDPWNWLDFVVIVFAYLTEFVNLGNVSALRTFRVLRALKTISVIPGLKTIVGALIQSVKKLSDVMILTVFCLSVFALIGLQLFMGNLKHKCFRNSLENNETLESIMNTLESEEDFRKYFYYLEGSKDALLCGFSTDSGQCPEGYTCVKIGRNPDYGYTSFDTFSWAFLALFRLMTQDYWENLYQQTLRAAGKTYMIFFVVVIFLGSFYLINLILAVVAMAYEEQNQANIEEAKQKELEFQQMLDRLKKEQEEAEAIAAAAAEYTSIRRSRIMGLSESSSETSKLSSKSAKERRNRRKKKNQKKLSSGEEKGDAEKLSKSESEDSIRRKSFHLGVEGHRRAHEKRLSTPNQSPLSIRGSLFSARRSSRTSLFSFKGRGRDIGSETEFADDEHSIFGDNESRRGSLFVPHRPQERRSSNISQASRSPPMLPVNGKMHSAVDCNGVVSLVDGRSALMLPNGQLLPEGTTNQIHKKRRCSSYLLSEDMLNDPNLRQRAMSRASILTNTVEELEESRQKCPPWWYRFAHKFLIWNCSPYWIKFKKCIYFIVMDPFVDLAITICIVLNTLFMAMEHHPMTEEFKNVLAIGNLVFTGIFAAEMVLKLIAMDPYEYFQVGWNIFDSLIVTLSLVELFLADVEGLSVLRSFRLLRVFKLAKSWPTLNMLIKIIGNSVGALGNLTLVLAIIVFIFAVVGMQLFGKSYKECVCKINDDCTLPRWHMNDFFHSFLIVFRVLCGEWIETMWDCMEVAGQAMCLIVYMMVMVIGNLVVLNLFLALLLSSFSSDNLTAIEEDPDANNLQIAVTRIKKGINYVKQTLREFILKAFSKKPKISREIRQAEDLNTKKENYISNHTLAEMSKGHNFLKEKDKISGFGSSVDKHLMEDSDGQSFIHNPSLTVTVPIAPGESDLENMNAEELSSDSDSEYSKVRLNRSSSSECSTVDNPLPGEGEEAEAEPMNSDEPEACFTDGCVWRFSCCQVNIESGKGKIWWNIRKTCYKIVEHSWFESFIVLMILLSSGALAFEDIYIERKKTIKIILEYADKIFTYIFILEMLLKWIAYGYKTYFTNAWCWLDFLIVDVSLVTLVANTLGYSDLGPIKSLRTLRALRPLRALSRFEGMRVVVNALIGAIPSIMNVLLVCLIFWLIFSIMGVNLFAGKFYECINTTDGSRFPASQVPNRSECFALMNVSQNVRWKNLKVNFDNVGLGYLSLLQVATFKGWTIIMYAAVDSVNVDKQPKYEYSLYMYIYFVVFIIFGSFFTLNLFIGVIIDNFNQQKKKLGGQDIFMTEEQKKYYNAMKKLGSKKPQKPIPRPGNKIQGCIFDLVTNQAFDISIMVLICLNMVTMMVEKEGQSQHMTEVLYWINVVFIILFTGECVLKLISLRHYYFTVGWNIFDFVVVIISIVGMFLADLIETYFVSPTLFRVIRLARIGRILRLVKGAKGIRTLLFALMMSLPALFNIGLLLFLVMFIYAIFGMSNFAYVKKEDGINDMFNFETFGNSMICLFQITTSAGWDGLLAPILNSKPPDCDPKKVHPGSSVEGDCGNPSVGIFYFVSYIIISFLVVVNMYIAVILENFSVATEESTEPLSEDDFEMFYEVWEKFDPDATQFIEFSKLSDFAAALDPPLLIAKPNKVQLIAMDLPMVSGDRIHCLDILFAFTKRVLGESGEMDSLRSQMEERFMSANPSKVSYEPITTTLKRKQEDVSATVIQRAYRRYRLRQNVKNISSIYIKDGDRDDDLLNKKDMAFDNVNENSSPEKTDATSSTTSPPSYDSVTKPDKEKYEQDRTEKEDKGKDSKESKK
T2 sequence (Q07699 19-218 partner): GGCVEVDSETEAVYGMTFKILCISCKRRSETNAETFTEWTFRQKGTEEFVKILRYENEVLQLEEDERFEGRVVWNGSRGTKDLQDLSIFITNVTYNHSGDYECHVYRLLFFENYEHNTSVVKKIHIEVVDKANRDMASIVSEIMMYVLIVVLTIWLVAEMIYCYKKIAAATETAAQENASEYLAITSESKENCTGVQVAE
Briefly: Tritiated sulfonamide competitive binding to membranes from cells expressing hNav1.7 and the β1 subunit (LBA). The conditions noted are these: competition with 100 pM [3H]compound, 18 h, room temperature; read-out: Nav1.7 (LBA). Here is the method:
Tritiated Sulfonamide Binding to Membranes Isolated from Cells that Heterologously Express hNav1.7 and the β1 Subunit
Preparation of membranes containing recombinantly expressed sodium channels: Frozen recombinant cell pellets were thawed on ice and diluted to 4 times the cell pellet weight with ice cold 50 mM Tris HCl, pH 7.4 buffer. The cell suspensions were homogenized on ice using a motorized glass dounce homogenizer. Homogenates were further diluted 8.4 times with ice cold 50 mM Tris HCl, pH 7.4 buffer and then centrifuged at 200×g at 4° C. for 15 min. The supernatants were collected and centrifuged at 10000×g at 4° C. for 50 min. The pellets were then re-suspended in 100 mM NaCl, 20 mM Tris HCl, pH 7.4 buffer containing 1% v/v protease inhibitors (Calbiochem) and re-homogenized on ice. The homogenized membranes were then processed through a syringe equipped with a 26 gauge needle. Protein concentrations were determined by Bradford Assay and the membranes were stored at −80° C.
Saturation experiments. A competitive NaV1.7 inhibitor having a methyl group was tritiated. Three tritiums were incorporated in place of methyl hydrogens to generate [^3H]compound. Binding of this radioligand was preformed in 5 mL borosilicate glass test tubes at room temperature. Binding was initiated by adding membranes to increasing concentrations of [^3H]compound in 100 mM NaCl, 20 mM Tris HCl, pH 7.4 buffer containing 0.01% w/v bovine serum albumin (BSA) for 18 h. Non-specific binding was determined in the presence of 1 μM unlabelled compound. After 18 h, the reactants were filtered through GF/C glass fiber filters presoaked in 0.5% w/v polyethylene imine. Filters were washed with 15 mL ice cold 100 mM NaCl, 20 mM Tris HCl, pH 7.4 buffer containing 0.25% BSA to separate bound from free ligand. [^3H]compound bound to filters was quantified by liquid scintillation counting.
Binding reactions were performed in 96-well polypropylene plates at room temperature for 18 h. In 360 μL, membranes were incubated with 100 pM [^3H]compound and increasing concentrations of Test Compound. Non-specific binding was defined in the presence of 1 μM unlabelled compound. Reactions were transferred and filtered through 96-well glass fiber/C filter plates presoaked with 0.5% polyethylene imine. The filtered reactions were washed 5 times with 200 μL ice cold buffer containing 0.25% BSA. Bound radioactivity was determined by liquid scintillation counting.
Data Analysis: For saturation experiments, non-specific binding was subtracted from total binding to provide specific binding and these values were recalculated in terms of pmol ligand bound per mg protein. Saturation curves were constructed and dissociation constants were calculated using the single site ligand binding model: Beq=(Bmax*X)/(X+Kd), where Beq is the amount of ligand bound at equilibrium, Bmax is the maximum receptor density, Kd is the dissociation constant for the ligand, and X is the free ligand concentration. For competition studies percent inhibition was determined and IC50 values were calculated using a 4 parameter logistic model (% inhibition=(A+((B−A)/(1+((x/C)^D)))) using XLfit, where A and B are the maximal and minimum inhibition respectively, C is the IC50 concentration and D is the (Hill) slope.

Another data set concerns the target T3, NaV1.5 (Homo sapiens, UniProt Q14524).
T3 construct: expression vector containing the full-length cDNA coding for the desired human sodium channel α-subunit; expressed in transfected cells; host or cells: HEK-293
Put plainly: Patch voltage clamp electrophysiology assay (EP), NaV1.5 in HEK-293 cells. The format is cell-based. The following applies: HEK-293, β1 coexpressed, held at -60 mV (inactivated state).
Source text: as §1, §2, §3, §4, §5, §6

T3 sequence (Q14524 whole entry): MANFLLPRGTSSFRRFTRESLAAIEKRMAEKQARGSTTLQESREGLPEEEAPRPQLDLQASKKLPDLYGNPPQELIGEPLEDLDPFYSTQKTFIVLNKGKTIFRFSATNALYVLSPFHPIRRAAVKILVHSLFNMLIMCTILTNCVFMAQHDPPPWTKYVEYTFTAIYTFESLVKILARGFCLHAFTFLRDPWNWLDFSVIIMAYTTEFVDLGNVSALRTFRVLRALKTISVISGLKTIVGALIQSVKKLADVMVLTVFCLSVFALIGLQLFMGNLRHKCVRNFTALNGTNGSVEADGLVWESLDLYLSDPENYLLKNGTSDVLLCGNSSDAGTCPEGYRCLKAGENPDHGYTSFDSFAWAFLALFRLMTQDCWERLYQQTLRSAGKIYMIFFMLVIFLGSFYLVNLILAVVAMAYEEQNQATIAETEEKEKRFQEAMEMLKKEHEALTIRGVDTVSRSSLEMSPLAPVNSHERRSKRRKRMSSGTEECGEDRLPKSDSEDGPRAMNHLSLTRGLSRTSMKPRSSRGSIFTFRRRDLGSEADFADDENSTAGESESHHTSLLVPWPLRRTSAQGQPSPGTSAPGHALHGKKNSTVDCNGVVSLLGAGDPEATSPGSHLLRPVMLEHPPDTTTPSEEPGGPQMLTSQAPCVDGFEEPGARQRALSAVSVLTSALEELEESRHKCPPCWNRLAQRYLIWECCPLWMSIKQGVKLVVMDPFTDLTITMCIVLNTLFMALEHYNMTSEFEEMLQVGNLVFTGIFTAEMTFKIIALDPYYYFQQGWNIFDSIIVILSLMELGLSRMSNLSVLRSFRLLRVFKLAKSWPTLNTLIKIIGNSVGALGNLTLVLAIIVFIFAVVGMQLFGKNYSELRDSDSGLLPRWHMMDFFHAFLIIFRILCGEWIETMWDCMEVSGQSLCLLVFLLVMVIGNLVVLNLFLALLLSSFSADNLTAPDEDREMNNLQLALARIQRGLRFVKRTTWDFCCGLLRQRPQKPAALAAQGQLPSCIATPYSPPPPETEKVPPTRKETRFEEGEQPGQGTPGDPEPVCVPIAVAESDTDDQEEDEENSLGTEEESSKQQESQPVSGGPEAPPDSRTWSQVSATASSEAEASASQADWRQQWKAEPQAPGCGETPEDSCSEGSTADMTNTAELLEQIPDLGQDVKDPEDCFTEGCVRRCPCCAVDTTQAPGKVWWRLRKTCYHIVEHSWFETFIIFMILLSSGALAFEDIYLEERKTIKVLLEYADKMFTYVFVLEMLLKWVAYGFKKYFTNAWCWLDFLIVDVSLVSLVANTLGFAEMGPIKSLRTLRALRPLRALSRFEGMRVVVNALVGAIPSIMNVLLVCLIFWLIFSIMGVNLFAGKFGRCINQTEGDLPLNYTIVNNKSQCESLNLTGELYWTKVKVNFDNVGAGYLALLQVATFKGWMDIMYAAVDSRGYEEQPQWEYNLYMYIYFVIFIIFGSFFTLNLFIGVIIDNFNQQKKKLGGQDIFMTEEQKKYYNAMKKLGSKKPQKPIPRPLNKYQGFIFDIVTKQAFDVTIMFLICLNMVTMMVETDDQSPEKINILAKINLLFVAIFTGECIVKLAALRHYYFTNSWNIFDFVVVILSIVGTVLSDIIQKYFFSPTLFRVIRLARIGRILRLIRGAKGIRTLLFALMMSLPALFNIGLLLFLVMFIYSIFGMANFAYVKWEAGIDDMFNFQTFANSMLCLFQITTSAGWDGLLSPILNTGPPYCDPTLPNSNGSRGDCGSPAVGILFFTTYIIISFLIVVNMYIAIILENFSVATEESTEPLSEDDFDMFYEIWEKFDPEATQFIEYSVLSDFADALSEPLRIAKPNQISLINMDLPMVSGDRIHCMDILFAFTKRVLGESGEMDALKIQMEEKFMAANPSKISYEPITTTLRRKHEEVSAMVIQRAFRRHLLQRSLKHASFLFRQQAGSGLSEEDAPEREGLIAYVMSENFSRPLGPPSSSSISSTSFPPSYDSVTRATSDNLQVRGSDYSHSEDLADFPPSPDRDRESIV
T1 sequence (Q15858 1-1977 isoform Q15858-3): as the sequence (Q15858 1-1977 isoform Q15858-3) above
T1 sequence (Q07699 19-218 partner): as the sequence (Q07699 19-218 partner) above

As to `Cc1nn([C@@H]2CCN([C@@H](C)c3cc(Cl)cc(Cl)c3)C2)c2cc(F)c(C(=O)NS(=O)(=O)C3CC3)cc12` [Example 19, N-(cyclopropylsulfonyl)-1-((R)-1-((S)-1-(3,5-dichlorophenyl)ethyl)pyrrolidin-3-yl)-6-fluoro-3-methyl-1H-indazole-5-carboxamide, trifluoroacetic acid salt], the IC50 against NaV1.7 was 41 nM; at hNav1.7 it was 12 nM; at NaV1.5 it was 6300 nM.

In the case of `Cc1nn([C@@H]2CCN([C@H](C)c3cc(Cl)cc(Cl)c3)C2)c2cc(F)c(C(=O)NS(=O)(=O)C3CC3)cc12` [Example 17, N-(cyclopropylsulfonyl)-1-((R)-1-((R)-1-(3,5-dichlorophenyl)ethyl)pyrrolidin-3-yl)-6-fluoro-3-methyl-1H-indazole-5-carboxamide 2,2,2-trifluoroacetate], the IC50 amounted to 45 nM against NaV1.7, 6 nM on hNav1.7 and 880 nM on NaV1.5.

For the compound `Cc1nn(C2CN(C(c3ccccc3)c3ccccc3)C2)c2cc(F)c(C(=O)NS(C)(=O)=O)cc12` [Example 24, 1-(1-benzhydrylazetidin-3-yl)-6-fluoro-3-methyl-N-(methylsulfonyl)-1H-indazole-5-carboxamide], the figures for the IC50 against NaV1.7, at hNav1.7 and at NaV1.5 were 87 nM, 48 nM and 8600 nM, respectively.

Regarding `Cc1nn(C2CCN(Cc3cc(C(F)(F)F)cc(Cl)c3F)CC2)c2cc(F)c(C(=O)NS(=O)(=O)N3CCC3)cc12` [Example 3, N-(azetidin-1-ylsulfonyl)-1-(1-(3-chloro-2-fluoro-5-(trifluoromethyl)benzyl)piperidin-4-yl)-6-fluoro-3-methyl-1H-indazole-5-carboxamide 2,2,2-trifluoroacetate], the IC50 amounted to 250 nM on NaV1.7, 33 nM at hNav1.7 and 7400 nM on NaV1.5.

As to `Cc1nn(C23CC4CC(CC(C4)C2)C3)c2cc(F)c(C(=O)NS(=O)(=O)N3CCC3)cc12` [Example 35, 1-((3s,5s,7s)-adamantan-1-yl)-N-(azetidin-1-ylsulfonyl)-6-fluoro-3-methyl-1H-indazole-5-carboxamide], the IC50 is 1000 nM on NaV1.7; 180 nM on hNav1.7; not below 30000 nM at NaV1.5 (human, pH 7.4).

As to `Cc1nn(CC2CN(C(c3ccccc3)c3ccccc3)C2)c2cc(F)c(C(=O)NS(C)(=O)=O)cc12` [Example 23, 1-((1-benzhydrylazetidin-3-yl)methyl)-6-fluoro-3-methyl-N-(methylsulfonyl)-1H-indazole-5-carboxamide], the IC50 against NaV1.7 is 550 nM; on hNav1.7 it was 280 nM; against NaV1.5 (human, pH 7.4), not below 30000 nM.

For the compound `Cc1nn(C2CCN(Cc3cc(C(F)(F)F)cc(Cl)c3F)CC2)c2cc(F)c(C(=O)NS(=O)(=O)C3CC3)cc12` [Example 2, 1-(1-(3-chloro-2-fluoro-5-(trifluoromethyl)benzyl)piperidin-4-yl)-N-(cyclopropylsulfonyl)-6-fluoro-3-methyl-1H-indazole-5-carboxamide 2,2,2-trifluoroacetate], the IC50 was 86 nM against NaV1.7, 13 nM on hNav1.7 and 4900 nM against NaV1.5.

Regarding `Cc1nn(C2CCN(c3ccc(Cl)c(C(F)(F)F)n3)CC2)c2cc(F)c(C(=O)NS(=O)(=O)C3CC3)cc12` [Example 13, 1-(1-(5-chloro-6-(trifluoromethyl)pyridin-2-yl)piperidin-4-yl)-N-(cyclopropylsulfonyl)-6-fluoro-3-methyl-1H-indazole-5-carboxamide 2,2,2-trifluoroacetate], the IC50 against NaV1.7 is 250 nM; at hNav1.7, 15 nM; on NaV1.5 it was 2400 nM.

As to `Cc1nn([C@@H]2CCN(C(=O)c3cc(Cl)cc(Cl)c3)C2)c2cc(F)c(C(=O)NS(=O)(=O)C3CC3)cc12` [Example 21, (R)-N-(cyclopropylsulfonyl)-1-(1-(3,5-dichlorobenzoyl)pyrrolidin-3-yl)-6-fluoro-3-methyl-1H-indazole-5-carboxamide], the IC50 at NaV1.7 is 4000 nM; at hNav1.7, 1500 nM; on NaV1.5 (human, pH 7.4) it was not below 30000 nM.

As for `Cc1nn([C@@H]2CCN([C@H](C)c3cc(Cl)cc(OC(F)(F)F)c3)C2)c2cc(F)c(C(=O)NS(=O)(=O)C3CC3)cc12` [Example 22, 1-((R)-1-((R)-1-(3-chloro-5-(trifluoromethoxy)phenyl)ethyl)pyrrolidin-3-yl)-N-(cyclopropylsulfonyl)-6-fluoro-3-methyl-1H-indazole-5-carboxamide, trifluoroacetic acid salt], the IC50 at NaV1.7 was 110 nM; on hNav1.7, 20 nM; against NaV1.5, 4800 nM.

Regarding `Cc1nn(-c2cnc(OCC(C)C)c(Cl)c2)c2cc(F)c(C(=O)NS(C)(=O)=O)cc12` [Example 39, 1-(5-chloro-6-isobutbxypyridin-3-yl)-6-fluoro-3-methyl-N-(methylsulfonyl)-1H-indazole-5-carboxamide], the IC50 on NaV1.7 was 39 nM; on hNav1.7 it was 8 nM; against NaV1.5 (human, pH 7.4), not below 30000 nM.

As for `Cc1nn(C2CCN(Cc3cc(Cl)ccc3C(F)(F)F)CC2)c2cc(F)c(C(=O)NS(=O)(=O)C3CC3)cc12` [Example 8, 1-(1-(5-chloro-2-(trifluoromethyl)benzyl)piperidin-4-yl)-N-(cyclopropylsulfonyl)-6-fluoro-3-methyl-1H-indazole-5-carboxamide], the IC50 on NaV1.7 was found to be 26 nM; on hNav1.7, 5 nM; at NaV1.5, 610 nM.
